ChEMBL document CHEMBL5512623, “Discovery of the novel and potent histamine H1 receptor antagonists for treatment of allergic diseases” (Eur J Med Chem, 2024)

Key:
[1] = target: Voltage-gated inwardly rectifying potassium channel KCNH2 (Homo sapiens, UniProt Q12809); assay: Inhibition of hERG in HEK293 cells measured after 5 mins by patch-clamp assay
[2] = target: Muscarinic acetylcholine receptor M3 (Homo sapiens, UniProt P20309); assay: Antagonist activity at human muscarinic M3 receptor expressed in PathHunter U2OS CHRM3 beta-arrestin cells preincubated for 30 mins followed by agonist addition at 6 times EC80 and measured after 90 to 180 mins by PathHunter assay; type: functional, cell-based
[3] = target: Histamine H1 receptor (Homo sapiens, UniProt P35367); assay: Antagonist activity at human H1 receptor expressed in PathHunter CHO-K1 HRH1 beta-arrestin cells preincubated for 30 mins followed by agonist addition at 6 times EC80 and measured after 90 to 180 mins by PathHunter assay; type: functional, cell-based
Histamine H1 receptor, sequence (P35367 whole entry): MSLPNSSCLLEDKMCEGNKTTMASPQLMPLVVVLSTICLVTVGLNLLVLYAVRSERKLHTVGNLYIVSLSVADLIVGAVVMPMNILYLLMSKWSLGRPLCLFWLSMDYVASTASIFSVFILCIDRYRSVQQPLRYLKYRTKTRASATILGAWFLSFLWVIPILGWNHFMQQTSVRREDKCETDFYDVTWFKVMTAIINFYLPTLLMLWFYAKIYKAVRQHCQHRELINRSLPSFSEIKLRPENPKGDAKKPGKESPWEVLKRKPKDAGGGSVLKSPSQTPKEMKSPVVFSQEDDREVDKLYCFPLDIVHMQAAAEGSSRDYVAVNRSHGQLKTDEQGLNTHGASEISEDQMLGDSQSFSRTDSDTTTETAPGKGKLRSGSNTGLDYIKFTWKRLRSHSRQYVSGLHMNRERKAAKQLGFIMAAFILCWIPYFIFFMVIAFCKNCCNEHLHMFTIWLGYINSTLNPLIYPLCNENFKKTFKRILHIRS

Voltage-gated inwardly rectifying potassium channel KCNH2, sequence (Q12809 whole entry): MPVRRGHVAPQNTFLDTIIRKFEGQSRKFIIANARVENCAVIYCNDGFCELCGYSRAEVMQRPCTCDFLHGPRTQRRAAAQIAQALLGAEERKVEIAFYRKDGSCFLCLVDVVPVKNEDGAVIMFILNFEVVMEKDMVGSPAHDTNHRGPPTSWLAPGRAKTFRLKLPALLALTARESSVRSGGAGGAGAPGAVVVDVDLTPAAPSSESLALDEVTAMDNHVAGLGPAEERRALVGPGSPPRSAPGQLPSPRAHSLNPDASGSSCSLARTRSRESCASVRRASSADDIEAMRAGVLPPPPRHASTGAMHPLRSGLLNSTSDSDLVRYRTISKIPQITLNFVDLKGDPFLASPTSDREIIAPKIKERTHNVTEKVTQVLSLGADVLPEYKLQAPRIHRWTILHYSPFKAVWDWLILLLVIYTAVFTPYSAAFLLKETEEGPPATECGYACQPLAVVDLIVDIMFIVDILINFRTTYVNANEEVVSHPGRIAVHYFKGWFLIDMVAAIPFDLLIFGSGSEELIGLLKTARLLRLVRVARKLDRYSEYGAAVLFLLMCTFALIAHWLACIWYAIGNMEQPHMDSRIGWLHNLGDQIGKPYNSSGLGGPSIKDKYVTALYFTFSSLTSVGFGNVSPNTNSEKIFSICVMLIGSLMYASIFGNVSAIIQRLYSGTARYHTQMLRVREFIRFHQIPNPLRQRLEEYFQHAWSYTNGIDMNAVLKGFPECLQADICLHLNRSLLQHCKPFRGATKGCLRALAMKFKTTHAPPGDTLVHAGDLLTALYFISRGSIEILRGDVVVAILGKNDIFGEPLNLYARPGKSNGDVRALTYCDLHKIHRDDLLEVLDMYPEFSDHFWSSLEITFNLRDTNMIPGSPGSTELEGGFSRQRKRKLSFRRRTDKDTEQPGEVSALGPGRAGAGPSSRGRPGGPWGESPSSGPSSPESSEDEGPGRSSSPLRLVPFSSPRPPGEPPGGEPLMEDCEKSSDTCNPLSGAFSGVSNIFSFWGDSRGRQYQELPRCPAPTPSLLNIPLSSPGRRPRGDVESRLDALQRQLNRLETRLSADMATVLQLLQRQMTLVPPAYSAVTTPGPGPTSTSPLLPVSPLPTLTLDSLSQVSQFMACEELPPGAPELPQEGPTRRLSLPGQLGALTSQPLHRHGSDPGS
Muscarinic acetylcholine receptor M3, sequence (P20309 whole entry): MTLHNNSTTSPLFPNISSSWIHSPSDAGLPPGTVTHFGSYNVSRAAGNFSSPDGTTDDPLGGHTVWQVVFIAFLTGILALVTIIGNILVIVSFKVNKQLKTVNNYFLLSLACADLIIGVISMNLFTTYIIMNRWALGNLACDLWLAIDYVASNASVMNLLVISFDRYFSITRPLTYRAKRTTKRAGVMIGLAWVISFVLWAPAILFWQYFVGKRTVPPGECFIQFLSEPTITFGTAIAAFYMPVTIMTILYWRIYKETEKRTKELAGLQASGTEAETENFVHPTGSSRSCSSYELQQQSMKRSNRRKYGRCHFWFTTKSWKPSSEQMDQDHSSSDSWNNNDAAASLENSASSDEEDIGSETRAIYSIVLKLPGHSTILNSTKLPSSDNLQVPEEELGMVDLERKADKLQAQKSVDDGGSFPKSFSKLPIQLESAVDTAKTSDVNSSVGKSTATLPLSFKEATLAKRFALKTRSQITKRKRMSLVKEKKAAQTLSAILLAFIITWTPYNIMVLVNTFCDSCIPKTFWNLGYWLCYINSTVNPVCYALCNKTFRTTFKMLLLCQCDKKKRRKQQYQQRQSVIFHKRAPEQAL

SMILES | IC50 [1] [µM] | IC50 [2] [µM] | IC50 [3] [µM]
OC[C@H](O)CN1CCC(=C2c3ccc(Cl)cc3CCc3cccnc32)CC1 | 2.64 | > 10 | –
O=C(O)CC(O)CN1CCC(=C2c3ccc(Cl)cc3CCc3cccnc32)CC1 (stereo not given) | > 30 | > 10 | 0.126
